Measurements taken from patent US8829014B2, “Thiazole and thiophene analogues, and their use in treating autoimmune diseases and cancers” (Board of Supervisors of Louisiana State University and …, priority 2006, dated 2014).
Marks after values point to notes of the source that are not given here.

Experiments:
carageenan-induced edema = experiment: Carrageenan-induced rat paw edema test (anti-inflammatory activity); assay type: in vivo, Sprague-Dawley rats; conditions: rat paw edema, 50 mg/kg, reading 3 hours after carrageenan, [(Control−Test)/Control]×100%
In short: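 Sprague-Dawley rats (male and female, 150-250 g), fasted 18 h, given compound orally at 50 mg/kg in 0.1% sodium CMC (alternatively i.v., s.c. or i.p.). 1% carrageenan injected sub-plantar in right hind paw 1 h later. Paw displacement read again 3 h later; % protection = [(Control−Test)/Control]×100 versus saline control.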

eIF4E = eIF4E inhibitor screen: luciferase under FGF 5′UTR in FaDu cells (highly cap-dependent translation); assay type: cell-based; conditions: 1.0 μM, 48 h, FaDu UTR cells, normalized to DMSO (FIG. 8)
From the text: Since highly cap-dependent translation is associated with synthesis of proteins involved in cancer, a compound that inhibits this pathway may be used as an anti-cancer agent. The assay was developed by cloning the highly structured 5′ UTR of FGF, which requires high levels of eIF4E before protein synthesis can initiate, into the proper orientation of the reporter gene luciferase, and then stably transfecting the modified luciferase gene into the cell line FaDu that is known to have high levels of eIF4E. The activity of luciferase is then monitored in the presence and absence of the tested compound.
Generation of Stable Cell Lines: The pMS110 plasmid (pGL3-control plasmid from Promega which contains a neo selectable marker) was used to generate pMS110-5′UTR by cloning the 5′ UTR of FGF just upstream of the luciferase AUG start codon. FaDu cells, a head and neck cancer cell line, were transfected using Lipofectamine2000 (Invitrogen). Twenty-four hours after transfection G418 was added at 500 μg/ml. Cells were maintained in G418 for 14 days, and then individual colonies were transferred to a 96-well plate for propagation. Individual clones were analyzed for luciferase expression by plating 10^4 cells per well in a 96-well plate for 24 hours before lysing the cells and analyzing for luciferase activity in a Victor III (Perkin Elmer) or Lucy2 (Rosys Anthos). FaDu9000 and FaDuUTR were the clones that expressed the highest level of active luciferase following transfection of pMS110 and pMS110-5′UTR, respectively.
Analysis of Rapamycin Responsiveness: Cells of FaDu9000 and FaDuUTR were plated at 1×10^4 cells/well in a 96-well dish. Twenty-four hours after plating, 0.1% DMSO (vehicle control) or 10 nM rapamycin were added to each well, and the cells were maintained for an additional 24 or 48 hours. The cells were then lysed and luciferase activity was determined using BriteGlo (Promega) as per manufacturer's instruction and recorded using the Victor III. Following subtraction of background activity, the mean value of quadruplicate samples for a given experiment was determined, and the treated cells were normalized to the control. At least four separate experiments were conducted, and the mean and standard error were calculated. To determine if rapamycin affected cell viability, an MTS assay (Cell Proliferation One Solution, Promega) was carried out on each population at 48 hours in two separate experiments.
The FaDu cell line stably transfected with FGF 5′UTR was used to screen thirty-nine representative compounds, each at a concentration of 1.0 μM. Additional cells were treated with vehicle, 0.3% DMSO. Cells were plated for twenty-four hours in a 96-well plate. Each compound was then added to triplicate wells, and the cells were incubated for forty-eight hours before measuring luciferase activity as above. The mean luciferase activity was measured using Promega's Brite-Glo kit, and the mean for each sample was normalized to DMSO. The experiment was then repeated, and the average and standard deviation of the two experiments were determined (FIG. 8).

NF-κB = experiment: TNF-α-induced NF-κB-dependent luciferase expression in HEK cells; assay type: cell-based; parameters: NF-κB % inhibition: concentration or dose not given beside the values; conditions: for NF-κB % inhibition: TNF-α-induced, compound added 1 h before inducer, luciferase 24 h later, normalized to DMSO vehicle
AP-1 = experiment: PMA-induced AP-1 luciferase expression in HEK cells; assay type: cell-based; conditions: for AP-1 % inhibition: PMA-induced, compound added 1 h before inducer, luciferase 24 h later, normalized to DMSO vehicle
[1] = system: human proximal tubule (HPT) cells; experiment: Ethidium homodimer (EthHD) uptake toxicity assay in HPT cells; assay type: cell-based; conditions: 10 μM, 48 h, relative to vehicle
Experimental: (§1) Additional compounds have also been tested for their ability to inhibit both TNF-α-induced NF-κB—expression and PMA-induced AP-1 expression. In both tests, the compound was added for 1 h, then the appropriate inducer was added, and luciferase activity was monitored 24 h later. Values were then normalized to the vehicle control, DMSO. Following the initial luciferase screens, studies were conducted to assess the cytotoxicity of the compounds in normal cells such as VSMC, HUVEC, or HPT cells. Human umbilical vein endothelial cells (HUVEC) represent the normal endothelium, vascular smooth muscle cells (VSMC) were represented by cells from the adult rat aorta, and human proximal tubule (HPT) cells represent the normal proximal tubule in vivo. These cells were grown to near confluency in multi-well plates, and were then treated for 48 h with either vehicle (0.1% DMSO) or 10 μM of each drug candidate. Following treatment, the media from the VSMC and HUVEC incubations were removed, and the amount of lactate dehydrogenase (LDH) released into the medium was determined with a commercial kit. LDH is normally confined to the cytosol, and its release represents “leakiness” of the plasma membrane. LDH activity was expressed as % increase over vehicle-treated cells. In another assay of viability, the treated VSMC and HUVEC were removed by trypsinization and treated with trypan blue, a dye that is taken up only by dead cells. The number of both live and dead cells was counted using an automated cell viability analyzer. The % decrease in numbers of viable cells was determined. Toxicity in the treated HPT cells was determined by the ethidium homodimer (EthHD) uptake assay. EthHD is a fluorescent dye that is excluded from live cells, but is taken up by cells that have lost permeability barriers. Inside the cell, EthHD produces a strong fluorescent signal, which is proportional to the number of dead cells. Results were expressed as a % increase in cell death over vehicle-treated cells. The lead compounds were also tested in two pairs of cell lines from either the skin or prostate, one tumorigenic and one non-tumorigenic, to test for any differences in toxicity or heightened sensitivity in the tumorigenic lines. The cells were treated for 48 h with vehicle (0.1% DMSO) or 10 μM of each drug candidate. Following treatment, the viability of the cells was determined by the MTT assay. In this assay, the MTT dye is converted only in viable cells by intracellular enzymes to a colorimetric product that is quantitated by a microplate reader.
(§2) For the results in Table 13, cells were grown to near confluency in multi-well plates, then treated for 48 h with either vehicle (0.1% DMSO) or 10 μM of each drug candidate. Following treatment, the media from the VSMC and HUVEC incubations were removed, and the amount of lactate dehydrogenase (LDH) released into the medium was determined with a commercial kit and expressed as a % increase over vehicle-treated cells. HPT toxicity was determined by the ethidium homodimer (EthHD) uptake assay. Inside the cell, EthHD produces a strong fluorescent signal, which is proportional to the amount of cell death, expressed as a % increase in cell death over vehicle-treated cells. The lead compounds were also tested in two pairs of cell lines from the skin or prostate, one tumorigenic and one non-tumorigenic, to test for differing toxicity or heightened sensitivity in the tumorigenic lines. The cells were treated for 48 h with vehicle (0.1% DMSO) or 10 μM of each drug candidate, and the viability of the cells was determined by the MTT assay, expressed as a % decrease in viability compared to vehicle-treated cells. The in vivo inflammation model measured the % inhibition of rat paw edema induced by carageenan injection.

[2] = system: Human umbilical vein endothelial cells (HUVEC); experiment: Trypan blue viability count in HUVEC; assay type: cell-based; conditions: HUVEC, 10 μM, 48 h, relative to vehicle
Experimental: as §1

[3] = system: cell lines from the skin, one tumorigenic and one non-tumorigenic; experiment: MTT viability in skin cell line pair, tumorigenic and non-tumorigenic; assay type: cell-based
Experimental: as §1, §2

[4] = system: Human umbilical vein endothelial cells (HUVEC); experiment: LDH release cytotoxicity in HUVEC; assay type: cell-based; conditions: HUVEC, 10 μM, 48 h, relative to vehicle
Experimental: as §1, §2

[5] = system: vascular smooth muscle cells (VSMC); experiment: Trypan blue viability count in VSMC; assay type: cell-based; conditions: VSMC, 10 μM, 48 h, relative to vehicle
Experimental: as §1

[6] = system: vascular smooth muscle cells (VSMC); experiment: LDH release cytotoxicity in VSMC; assay type: cell-based; conditions: VSMC, 10 μM, 48 h, relative to vehicle
Experimental: as §1, §2

Compound	inhibition in vivo at 50 mg/kg (carageenan-induced edema; Rattus norvegicus, po, 3 h, read-out: % Protection P) [%]	luciferase expression under the control of the FGF 5′UTR (eIF4E)	inhibition at 1 µM (NF-κB; Homo sapiens, HEK293, 1 uM, luciferase in HEK/NF-κB cells, as described in Example 398, read-out: NFkB inhibition @ 1 uM) [%]	inhibition at 1 µM (AP-1; AP1, 1 uM, luciferase in HEK/AP-1 cells, as described in Example 398) [%]	Cell Death (EthHD) % Increase HPT [1]	Viable Cells % Decrease HUVEC [2]	Viability (MTT) % Decrease HaCaT [3] [%]	Viability (MTT) % Decrease SRB12-p9 [3]	LDH release % Increase HUVEC [4]	Viable Cells % Decrease VSMC [5]	NF-κB % inhibition (NF-κB)	AP-1 % inhibition (AP-1)	LDH release % Increase VSMC [6]	% Protection P (carageenan-induced edema) [%]	NFkB inhibition @ 1 uM (NF-κB; 1 uM, luciferase in HEK/NF-κB cells, as described in Example 398)	AP-1 inhibition @ 1 uM (AP-1; 1 uM, luciferase in HEK/AP-1 cells, as described in Example 398)
O=C(c1sc(Nc2ccccc2)nc1-c1ccccc1)c1sc(Nc2ccccc2)nc1-c1ccccc1 [Example 126, Bis-(2-phenylamino-4-phenyl-thiazole-5-yl)-methanone]	64.5	increased luciferase expression	22.2	27.1												
COc1ccccc1-n1c(-c2cc(-c3ccncc3)c(N3CCOCC3)s2)nc2ccccc2c1=O [PMCR206]					147# %	12%	11	30# %	−1%	0%	31%	33%	0%			
COc1ccc(-n2c(-c3cc(-c4ccc(S(C)(=O)=O)cc4)c(N4CCOCC4)s3)nc3ccccc3c2=O)cc1 [PMCR216]					152# %	−1%	−21	16%	0%	6%	60** %	10%	−10%			
O=c1c2ccccc2nc(-c2cc(-c3ccncc3)c(N3CCOCC3)s2)n1-c1ccccc1Cl [PMCR224]					266# %	43# %	−4	13%	28# %	63# %	80** %	45%	18%			
O=c1c2ccccc2nc(-c2cc(-c3ccncc3)c(N3CCOCC3)s2)n1-c1ccc(Cl)cc1 [PMCR236]					172# %	60# %	6	19%	39# %	94# %	68** %	32%	91# %			
CC(=O)c1ccc(-n2c(-c3cc(-c4ccncc4)c(N4CCOCC4)s3)nc3ccccc3c2=O)cc1 [PMCR242]					50# %	60# %	−28	14%	61# %	90# %	66** %	84** %	68# %			
Bis-(2-phenylamino-4-benzayl-thiazole-5-yl)-methanone [Example 133]		inhibited luciferase expression												19.09	17.74	24.53
N-{4-{5-[4-(4-acetylamino-phenyl)-5-morpholin-4-yl-thiophene-2-carbonyl]-2-morpholin-4-yl-thiophene-3-yl}-phenyl)-acetamide [Example 113]		increased luciferase expression														
